# Measurements: publication PMC4774911, “Biochemical Screening of Five Protein Kinases from Plasmodium falciparum against 14,000 Cell-Active Compounds” (PLoS ONE, 2016)
# “And” between values parts separate entries of the source, which are not always exact repeats. Equal values may be shown once.
# Legend:
# Experiment in all cases: biochemical
# Set-up in all cases: endogenous in cells; host or cells: K562 cell extract; species or system K562 (extract); replicate k of n = 2 (each experiment ID is one independent experiment; two experiment IDs per compound)
# Details in all cases: read-out: KDapp
# ADCK1 = target: T1, ADCK1 (Homo sapiens, UniProt Q86TW2)
# T1 sequence (Q86TW2 1-530): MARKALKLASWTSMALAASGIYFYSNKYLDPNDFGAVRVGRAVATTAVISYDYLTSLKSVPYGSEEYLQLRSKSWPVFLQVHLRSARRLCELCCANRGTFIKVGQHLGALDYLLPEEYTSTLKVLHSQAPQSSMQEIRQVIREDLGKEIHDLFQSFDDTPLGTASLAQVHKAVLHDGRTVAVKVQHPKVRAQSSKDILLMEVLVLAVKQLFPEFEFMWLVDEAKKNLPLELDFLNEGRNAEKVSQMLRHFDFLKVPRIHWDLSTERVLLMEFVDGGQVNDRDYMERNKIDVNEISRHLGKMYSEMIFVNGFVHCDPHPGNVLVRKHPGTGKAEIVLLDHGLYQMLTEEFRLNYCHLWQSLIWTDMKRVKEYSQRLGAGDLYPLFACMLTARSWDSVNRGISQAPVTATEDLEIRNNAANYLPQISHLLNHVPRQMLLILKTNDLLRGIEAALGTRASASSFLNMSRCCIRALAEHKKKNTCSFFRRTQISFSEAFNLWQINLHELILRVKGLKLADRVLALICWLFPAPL
# MAP3K2 = target: T2, MAP3K2 (Homo sapiens, UniProt Q9Y2U5)
# T2 sequence (Q9Y2U5 1-619): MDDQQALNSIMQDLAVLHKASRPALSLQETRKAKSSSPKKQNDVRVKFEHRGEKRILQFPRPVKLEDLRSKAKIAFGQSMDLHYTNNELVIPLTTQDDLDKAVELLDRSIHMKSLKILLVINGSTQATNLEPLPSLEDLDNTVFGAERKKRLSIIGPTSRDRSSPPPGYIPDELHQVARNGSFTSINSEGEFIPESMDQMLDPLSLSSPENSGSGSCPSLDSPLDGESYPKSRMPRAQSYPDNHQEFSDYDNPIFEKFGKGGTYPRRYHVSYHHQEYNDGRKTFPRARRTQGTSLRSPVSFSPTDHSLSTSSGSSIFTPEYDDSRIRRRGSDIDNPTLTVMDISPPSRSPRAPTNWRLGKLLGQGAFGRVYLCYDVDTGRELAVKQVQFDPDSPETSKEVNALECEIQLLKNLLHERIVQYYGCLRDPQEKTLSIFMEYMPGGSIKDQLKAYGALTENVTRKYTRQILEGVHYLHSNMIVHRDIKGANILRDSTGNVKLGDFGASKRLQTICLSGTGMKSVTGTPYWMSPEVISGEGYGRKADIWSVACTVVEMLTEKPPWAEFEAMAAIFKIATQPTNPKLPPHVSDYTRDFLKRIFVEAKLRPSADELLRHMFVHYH
# WEE1 = WEE1 (Homo sapiens, UniProt P30291)
# Sequence of WEE1 (P30291 whole entry): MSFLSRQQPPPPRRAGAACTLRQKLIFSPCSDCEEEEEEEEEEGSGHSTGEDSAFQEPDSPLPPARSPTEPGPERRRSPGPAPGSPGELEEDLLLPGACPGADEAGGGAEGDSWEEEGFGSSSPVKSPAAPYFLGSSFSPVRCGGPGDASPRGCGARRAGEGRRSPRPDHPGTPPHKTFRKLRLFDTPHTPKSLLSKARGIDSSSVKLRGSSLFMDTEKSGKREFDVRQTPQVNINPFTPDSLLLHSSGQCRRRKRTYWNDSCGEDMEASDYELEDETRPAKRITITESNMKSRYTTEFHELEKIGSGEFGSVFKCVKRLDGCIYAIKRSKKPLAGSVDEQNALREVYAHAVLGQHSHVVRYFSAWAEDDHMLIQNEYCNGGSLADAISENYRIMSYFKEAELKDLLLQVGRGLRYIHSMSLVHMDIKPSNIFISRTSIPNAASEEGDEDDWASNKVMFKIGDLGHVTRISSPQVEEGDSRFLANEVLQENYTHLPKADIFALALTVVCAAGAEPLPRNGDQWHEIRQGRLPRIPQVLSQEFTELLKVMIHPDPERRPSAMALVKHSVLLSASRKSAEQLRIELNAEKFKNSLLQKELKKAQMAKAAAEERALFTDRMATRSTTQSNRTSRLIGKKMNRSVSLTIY
# GAK = target: T3, GAK (Homo sapiens, UniProt O14976)
# T3 sequence (O14976 1-1311): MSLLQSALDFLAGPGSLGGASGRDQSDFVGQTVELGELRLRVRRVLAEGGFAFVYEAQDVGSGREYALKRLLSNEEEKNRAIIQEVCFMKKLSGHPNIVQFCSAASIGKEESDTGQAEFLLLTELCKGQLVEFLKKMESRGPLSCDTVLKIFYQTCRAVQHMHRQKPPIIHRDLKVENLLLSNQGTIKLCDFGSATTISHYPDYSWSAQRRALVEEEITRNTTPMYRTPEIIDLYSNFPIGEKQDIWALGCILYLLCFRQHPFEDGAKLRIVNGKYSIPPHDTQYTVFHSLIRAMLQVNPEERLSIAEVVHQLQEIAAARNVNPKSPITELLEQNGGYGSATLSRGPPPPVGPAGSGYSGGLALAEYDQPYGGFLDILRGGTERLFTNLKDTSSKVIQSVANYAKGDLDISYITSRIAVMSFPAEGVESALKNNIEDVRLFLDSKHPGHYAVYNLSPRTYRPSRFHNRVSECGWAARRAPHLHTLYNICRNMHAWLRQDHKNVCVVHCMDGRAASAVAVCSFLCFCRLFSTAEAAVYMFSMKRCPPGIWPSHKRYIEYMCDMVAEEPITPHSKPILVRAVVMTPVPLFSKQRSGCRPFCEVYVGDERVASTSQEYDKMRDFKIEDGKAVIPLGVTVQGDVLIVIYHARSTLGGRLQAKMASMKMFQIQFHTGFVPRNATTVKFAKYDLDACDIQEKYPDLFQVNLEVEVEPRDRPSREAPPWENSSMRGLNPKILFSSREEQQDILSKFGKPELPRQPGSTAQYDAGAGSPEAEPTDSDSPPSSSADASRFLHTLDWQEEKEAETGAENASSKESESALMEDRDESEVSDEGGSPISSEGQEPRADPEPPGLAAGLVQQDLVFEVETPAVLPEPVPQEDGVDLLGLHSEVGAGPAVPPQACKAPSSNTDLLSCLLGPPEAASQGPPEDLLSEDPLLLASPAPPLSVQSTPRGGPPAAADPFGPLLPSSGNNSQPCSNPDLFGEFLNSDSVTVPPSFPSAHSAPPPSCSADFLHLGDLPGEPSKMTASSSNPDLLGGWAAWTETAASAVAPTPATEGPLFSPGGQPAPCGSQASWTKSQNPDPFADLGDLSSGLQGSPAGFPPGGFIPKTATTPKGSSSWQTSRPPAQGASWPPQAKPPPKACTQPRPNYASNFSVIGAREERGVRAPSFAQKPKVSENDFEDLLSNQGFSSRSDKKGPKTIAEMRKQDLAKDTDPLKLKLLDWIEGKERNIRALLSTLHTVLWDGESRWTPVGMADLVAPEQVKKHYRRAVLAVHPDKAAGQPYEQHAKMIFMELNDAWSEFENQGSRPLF
SMILES,Kd (ADCK1),Kd (MAP3K2),Kd (WEE1),Kd (GAK)
CN1CCN(c2ccc(Nc3ncc(C#N)c(Nc4ccccc4C(N)=O)n3)cc2)CC1.Cl [TCMDC-134116],654 nM,318 nM,17.3 nM and 16.9 nM,32.3 nM and 39.4 nM
Cl.NCC1(c2nc(-c3ccc(Cl)c(O)c3)c(-c3ccncc3)[nH]2)CCCCC1 [TCMDC-141154],,779 nM,,
CN(C)CC(O)COc1ccc(Nc2ncc([N+](=O)[O-])c(Nc3ccccc3O)n2)cc1.O=C(O)C(F)(F)F (centres unmarked) [TCMDC-141399],1180 nM,,209 nM,591 nM and 907 nM
